Source: ChEMBL document CHEMBL1152299, “Indazole-based liver X receptor (LXR) modulators with maintained atherosclerotic lesion reduction activity but diminished stimulation of hepatic triglyceride synthesis” (J Med Chem, 2008)
Activity calls are given as the source filed them. The rule behind the calls is not given here.

Tests used:
HepG2 = test: Effect on triglyceride accumulation in human HepG2 cells relative to TO901317; format: functional
[1] = target: Oxysterols receptor LXR-alpha (Homo sapiens, UniProt Q13133)
Retinoid X receptor = target: T1, Retinoid X receptor (Homo sapiens, UniProt P28702+P48443+P19793); test: (§1) Displacement of radiolabeled 9-cis retinoic acid from human RXR by scintillation proximity assay; format: protein assay
T1 sequence (P28702 whole entry): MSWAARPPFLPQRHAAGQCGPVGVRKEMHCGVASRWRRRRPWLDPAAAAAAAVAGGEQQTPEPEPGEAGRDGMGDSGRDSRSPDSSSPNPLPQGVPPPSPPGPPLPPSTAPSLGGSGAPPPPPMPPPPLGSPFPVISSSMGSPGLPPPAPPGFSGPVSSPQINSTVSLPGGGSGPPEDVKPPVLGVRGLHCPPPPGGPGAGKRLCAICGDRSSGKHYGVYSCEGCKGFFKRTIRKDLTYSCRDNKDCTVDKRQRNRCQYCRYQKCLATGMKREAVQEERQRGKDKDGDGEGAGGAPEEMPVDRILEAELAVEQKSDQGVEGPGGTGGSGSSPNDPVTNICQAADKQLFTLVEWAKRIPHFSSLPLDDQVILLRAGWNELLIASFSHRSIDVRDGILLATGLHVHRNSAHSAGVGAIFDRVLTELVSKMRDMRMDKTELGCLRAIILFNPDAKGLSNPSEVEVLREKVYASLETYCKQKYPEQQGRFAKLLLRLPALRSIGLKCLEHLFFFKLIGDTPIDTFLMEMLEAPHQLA
T1 sequence (P48443 whole entry): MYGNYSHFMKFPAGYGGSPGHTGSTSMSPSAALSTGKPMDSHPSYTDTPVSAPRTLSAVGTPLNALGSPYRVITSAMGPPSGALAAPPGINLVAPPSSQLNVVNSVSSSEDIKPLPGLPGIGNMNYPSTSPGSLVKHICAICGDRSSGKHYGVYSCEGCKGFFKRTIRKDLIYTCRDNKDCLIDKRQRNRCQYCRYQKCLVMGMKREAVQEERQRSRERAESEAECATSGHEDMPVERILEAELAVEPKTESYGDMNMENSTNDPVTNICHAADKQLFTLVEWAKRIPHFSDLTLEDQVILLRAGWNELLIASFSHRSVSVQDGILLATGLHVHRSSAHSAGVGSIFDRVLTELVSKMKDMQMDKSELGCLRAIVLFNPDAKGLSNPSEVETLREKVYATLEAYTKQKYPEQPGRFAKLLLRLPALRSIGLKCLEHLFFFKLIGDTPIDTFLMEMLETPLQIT
T1 sequence (P19793 whole entry): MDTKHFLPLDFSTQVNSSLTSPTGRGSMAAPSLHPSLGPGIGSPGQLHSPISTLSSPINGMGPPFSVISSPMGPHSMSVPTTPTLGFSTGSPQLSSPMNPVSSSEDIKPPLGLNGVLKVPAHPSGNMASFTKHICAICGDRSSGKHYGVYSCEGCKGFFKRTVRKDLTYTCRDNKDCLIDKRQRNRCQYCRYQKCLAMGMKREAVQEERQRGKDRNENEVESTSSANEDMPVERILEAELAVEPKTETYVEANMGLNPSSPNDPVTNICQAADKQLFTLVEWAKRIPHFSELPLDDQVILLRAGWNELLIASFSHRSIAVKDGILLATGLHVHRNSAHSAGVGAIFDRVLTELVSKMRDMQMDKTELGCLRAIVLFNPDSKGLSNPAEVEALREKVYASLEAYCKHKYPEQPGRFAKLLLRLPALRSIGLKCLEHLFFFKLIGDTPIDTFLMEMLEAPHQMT

Mus musculus [2] = test: Upregulation of ABCA1 gene expression in LDL receptor knockout C57BL/6 mouse duodenum at 15 mg/kg administered with Western diet; format: functional; settings: route oral
Syrian golden hamster = test: Induction of FAS gene expression in golden Syrian hamster liver at 100 mg/kg administered with chow diet for 7 days measured after 2 hrs of final dose by real time PCR; format: functional, organism-based; parameters: dose 100 mg/kg; settings: Mesocricetus auratus
[3] = Bioavailability in C57 mouse at 1 mg/kg, iv and 10 mg/kg, po; format: ADME, organism-based; settings: in vivo
Mus musculus [4] = test: Decrease in total cholesterol level in LDL receptor knockout C57BL/6 mouse plasma at 15 mg/kg administered with Western diet after 8 weeks; format: functional; parameters: scale not given: the % may be the effect or the level left
[5] = Volume of distribution at steady state in C57 mouse at 1 mg/kg, iv and 10 mg/kg, po; format: ADME, organism-based; settings: in vivo, read-out: Vdss
[6] = Terminal half life in C57 mouse at 10 mg/kg, po; format: ADME, organism-based; parameters: dose 10 mg/kg, route oral; settings: in vivo, read-out: beta t1/2 (converted)
Mus musculus [7] = test: Increase in CYP7A1 gene expression in LDL receptor knockout C57BL/6 mouse liver at 15 mg/kg administered with Western diet; format: functional
Mus musculus [8] = test: Reduction in atherosclerotic lesion size in LDL receptor knockout C57BL/6 mouse thoracic aorta at 15 mg/kg administered with Western diet after 8 weeks by oil Red-O staining; format: functional; parameters: scale not given: the % may be the effect or the level left
[9] = target: Retinoid X receptor (Homo sapiens) (UniProt P28702+P48443+P19793); test: as §1; format: protein assay
[10] = Tmax in C57 mouse at 1 mg/kg, iv and 10 mg/kg, po; format: ADME, organism-based; settings: in vivo
[11] = Clearance in C57 mouse at 1 mg/kg, iv and 10 mg/kg, po; format: ADME, organism-based; settings: in vivo
[12] = Half life in C57 mouse at 1 mg/kg, iv; format: ADME, organism-based; parameters: dose 1 mg/kg, route intravenous; settings: in vivo
[13] = Cmax in male C57 mice after 10 mg/kg oral dose; format: ADME, organism-based; parameters: dose 10 mg/kg, route oral; settings: C57, mouse, in vivo

Compound	Efficacy (HepG2)	IC50 [1]	IC50 (Retinoid X receptor)	fold change (FC) (Mus musculus [2])	Activity (Syrian golden hamster)	bioavailability [3]	Activity (Mus musculus [4])	Vd [5]	half-life [6]	fold change (FC) (Mus musculus [7])	Activity (Mus musculus [8])	Activity [9]	Tmax [10]	clearance [11]	half-life [12]	Cmax [13]
Fc1ccc(-c2c3cccc(C(F)(F)F)c3nn2Cc2ccc(F)cc2Cl)cc1 [LXR-623]	35%	179 nM	> 10000 nM	–	–	–	–	–	–	–	–	–	–	–	–	–
Fc1ccc(-c2c3cccc(C(F)(F)F)c3nn2Cc2ccccc2F)cc1	38%	248 nM	–	2.3	inactive	106%	10%	30.3 L/kg	5.8 h	4	28%	inactive	0.5 h	57 mL/min/kg	7.9 h	633 ng/mL
